Measurements: publication PMC11478334, “Quaternized Curcumin Derivative—Synthesis, Physicochemical Characteristics, and Photocytotoxicity, Including Antibacterial Activity after Irradiation with Blue Light” (Molecules, 2024)

Key:
[1] = test system: Pseudomonas aeruginosa NCTC 6749; experiment: In vitro photodynamic inactivation of planktonic cells, 470 nm LED; format: cell-based
Description: (§1) The second experiment was designed to determine the time and concentration required to achieve the biological effect observed in the first experiment and to extend the study to other strains (Figure 12). Apart from S. aureus and E. coli, the Gram-positive Streptococcus pyogenes ATCC 19615, which is the etiologic agent of tonsillitis, and the Gram-negative Pseudomonas aeruginosa NCTC 6749, which is a major threat to hospitalized and immunocompromised patients due to its high antibiotic resistance, were used. The observed effect was strictly concentration-dependent (Table 6). According to the results, Gram-positive bacteria appear to be the most susceptible to the applied photocytotoxicity study. […] For S. pyogenes, the results were even more pronounced, as the complete eradication under the influence of compound 3 at a concentration of 10 µM occurred after only 5 min of irradiation, while at a concentration of 1 µM, complete eradication occurred after 15 min of irradiation. Interesting results were also obtained for Gram-negative bacteria. […] A high level of eradication of P. aeruginosa in the presence of compound 3 (10 µM) was observed after only 5 min of irradiation (log reduction: 4.29). […] Reductions in microbial survival were still observed with a decrease in compound concentration, but complete eradication was not achieved within the irradiation time.
(§2) The microorganisms used in the study were (i) standard strains of bacteria: Staphylococcus aureus NCTC 4163, Escherichia coli ATCC 25922, Pseudomonas aeruginosa NCTC 6749, and Streptococcus […] ATCC 19615, and (ii) fungi: Candida albicans ATCC 10231. The standard strains were obtained from the National Collection of Type Cultures (NCTC, Salisbury, UK) and the American Type Culture Collection (ATCC, Manassas, VA, USA). Bacterial and yeast strains were stored in Microbank cryogenic vials (Pro-Lab Diagnostics, Richmond Hill, ON, Canada) at −70 °C ± 10 °C. The bacteria were cultured aerobically in brain–heart infusion (BHI) broth (OXOID, Basingstoke, UK) at 36 °C ± 1 °C for 20 h. C. albicans cultures were grown in Sabouraud dextrose broth (SDB, Merck, Steinheim, Germany) at 36 °C for 20 h.
(§3) The organisms were harvested by centrifugation (3000× g for 15 min) and resuspended in 1.5 mL of 10 mM PBS, pH, 7.0 (Sigma-Aldrich, St. Louis, MO, USA). The cells were then diluted 1/100 in PBS to a final concentration of about 10^7 colony-forming units (CFUs)/mL. Aliquots (100 μL) of a standardized microbial suspension were placed in the wells of microtiter plates, and an equal volume of a solution of the tested compound was added to give final concentrations of 1 × 10^−5 (10 µM) and 1 × 10^−6 M (1 µM) (groups P+). Negative control wells contained the bacterial or yeast suspension and PBS without the photosensitizer (groups P−). All the samples were incubated in the dark for 20 min and irradiated by the LED panel at a distance of 10 mm for a specific period, depending on the experiment (groups L+). To evaluate the antimicrobial activity of the tested compounds, duplicate experimental samples were prepared but not irradiated (groups L−). Viable microorganisms were measured by counting the number of colony-forming units (CFUs) after appropriate serial dilution and culture on tryptic soy agar plates (TSA, OXOID, Basingstoke, UK) or Columbia Blood Agar with Sheep Blood (CAS, OXOID, Basingstoke, UK) for bacteria and Sabouraud dextrose agar (SDA, Merck, Steinheim, Germany) for fungi, following incubation at 36 °C ± 1 °C for 24–72 h. The number of surviving organisms and the log10 reduction in microbial cells for each sample were calculated using a formula available in the literature.
(§4) Lamp type—LED λmax~470 nm (LIU470A LED Array Light Source; Thorlabs Inc., Bergkirchen, Germany); irradiance—16.67 mW/cm^2 (measured with PM16-130 Power Meter, Thorlabs Inc., Bergkirchen, Germany, and Optel Opole Sp. z o.o., Opole, Poland).

[2] = test system: Streptococcus pyogenes ATCC 19615; experiment: as above; format: cell-based; conditions: for irradiation time to complete eradication: 470 nm LED
Description: as §1, §2, §3, §4

S. aureus = conditions: 10 µM; 440 nm; 1.944 J/cm^2; 3.6 mW/cm^2; 8.8 min; cited from earlier work
[3] = 1 µM, 15 min irradiation 470 nm
[4] = 10 µM, 5 min irradiation 470 nm (5 J/cm^2)

Row | Compound | Log Red. ([1]; 1 µM, 5 min irradiation 470 nm) [log] | Log Red. [1, 3] [log] | Log Red. ([1]; 1 µM, 25 min irradiation 470 nm) [log] | Log Red. ([1]; 1 µM, 30 min irradiation 470 nm (30 J/cm^2)) [log] | Log Red. [1, 4] [log] | Log Red. ([1]; 10 µM, 15 min irradiation 470 nm) [log] | Log Red. ([1]; 10 µM, 25 min irradiation 470 nm (25 J/cm^2)) [log] | Log Red. ([2]; 1 µM, 5 min irradiation 470 nm (5 J/cm^2)) [log] | irradiation time to complete eradication ([2]; 1 µM) [min] | Log Red. ([2]; 1 µM, 10 min irradiation 470 nm) [log] | Log Red. [2, 3] [log] | Log Red. [2, 4] [log] | irradiation time to complete eradication ([2]; 10 µM) [min] | Efficiency (log reduction) (S. aureus) [log]
1 | C[N+]1(CCOc2ccc(C=CC3=CC(C=Cc4ccc(OCC[N+]5(C)CCOCC5)cc4)=[O+][B-](F)(F)O3)cc2)CCOCC1 [Compound 3] | 0.86 | 2.32 | 2.83 | 3.32 | 4.29 | 4.75 | >4.85 | 3.03 | 15 | 4.51 | >4.93 | >4.93 | 5 | 
2 | Curcumin [reference compound] |  |  |  |  |  |  |  |  |  |  |  |  |  | 5.3
